Experimental data published in PubChem BioAssay AID248 (DTP/NCI, 2004).
Where “and” joins values, the source holds several entries; their conditions need not be identical. Equal values may be shown once. Inconclusive results and toxic doses are left out.

Test system: L1210 leukemia ip in BDF1 mice, survival T/C
Experiment: NCI In Vivo Anticancer Drug Screen. Data for tumor model L1210 Leukemia (intraperitoneal) in B6D2F1 (BDF1) mice
Conditions: endpoint: mean survival time, higher = longer survival
Method in brief: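 Each compound was tested against a transplantable tumor grown in mice. The endpoint was survival, with treated animals benchmarked against vehicle controls as a simple ratio.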

CCN(CC)CCNc1ccc(C)c2sc3ccccc3c(=O)c12
T/C (dose: 6.25 mg/kg/injection, schedule: Q01DX009 (ip), vehicle: saline): 117 % of control and 118 % of control
T/C (dose: 8.08 mg/kg/injection, schedule: Q01DX Z (ip), vehicle: carboxymethylcellulose (CMC)): 96 % of control
T/C (dose: 10.0 mg/kg/injection, schedule: Q01DX Z (ip), vehicle: other): 95 % of control
T/C (dose: 12.0 mg/kg/injection, schedule: Q01DX006 (iv), vehicle: saline): 98 % of control
T/C (dose: 12.0 mg/kg/injection, schedule: Q01DX Z (im), vehicle: saline): 98 % of control
T/C (dose: 12.0 mg/kg/injection, schedule: Q01DX Z (ip), vehicle: saline): 101 % of control
T/C (dose: 12.0 mg/kg/injection, schedule: Q01DX Z (sc), vehicle: saline): 98 % of control
T/C (dose: 12.5 mg/kg/injection, schedule: Q01DX005 (ip), vehicle: Klucel (hydroxypropylcellulose) (HPC)): 96 % of control and 97 % of control
T/C (dose: 12.5 mg/kg/injection, schedule: Q01DX005 (ip), vehicle: water): 101 % of control
T/C (dose: 13.0 mg/kg/injection, schedule: Q01DX Z (oral), vehicle: carboxymethylcellulose (CMC)): 122 % of control
T/C (dose: 16.17 mg/kg/injection, schedule: Q01DX Z (ip), vehicle: carboxymethylcellulose (CMC)): 104 % of control
T/C (dose: 18.0 mg/kg/injection, schedule: Q01DX Z (ip), vehicle: carboxymethylcellulose (CMC)): 98 % of control
T/C (dose: 18.0 mg/kg/injection, schedule: Q01DX Z (ip), vehicle: methylcellulose (MC)): 107 % of control
T/C (dose: 20.0 mg/kg/injection, schedule: Q01DX Z (ip), vehicle: carboxymethylcellulose (CMC)): 100 % of control and 109 % of control
T/C (dose: 20.0 mg/kg/injection, schedule: Q01DX Z (oral), vehicle: carboxymethylcellulose (CMC)): 112 % of control
T/C (dose: 24.0 mg/kg/injection, schedule: Q01DX Z (im), vehicle: saline): 103 % of control
T/C (dose: 24.0 mg/kg/injection, schedule: Q01DX Z (ip), vehicle: saline): 101 % of control
T/C (dose: 24.0 mg/kg/injection, schedule: Q01DX Z (sc), vehicle: saline): 98 % of control
T/C (dose: 25.0 mg/kg/injection, schedule: Q01DX005 (ip), vehicle: Klucel (hydroxypropylcellulose) (HPC)): 103 % of control and 105 % of control
T/C (dose: 25.0 mg/kg/injection, schedule: Q01DX005 (ip), vehicle: water): 112 % of control
T/C (dose: 25.0 mg/kg/injection, schedule: Q01DX010 (ip), vehicle: saline): 103 % of control and 113 % of control
T/C (dose: 25.0 mg/kg/injection, schedule: Q01DX Z (ip), vehicle: carboxymethylcellulose (CMC)): 109 % of control
T/C (dose: 25.0 mg/kg/injection, schedule: Q04DX003 (ip), vehicle: Klucel (hydroxypropylcellulose) (HPC)): 104 % of control and 110 % of control
T/C (dose: 25.0 mg/kg/injection, schedule: Q04DX003 (ip), vehicle: saline): 100 % of control
T/C (dose: 25.0 mg/kg/injection, schedule: Q04DX003 (ip), vehicle: water): 101 % of control
T/C (dose: 25.88 mg/kg/injection, schedule: Q01DX Z (ip), vehicle: carboxymethylcellulose (CMC)): 98 % of control
T/C (dose: 27.0 mg/kg/injection, schedule: Q01DX Z (ip), vehicle: carboxymethylcellulose (CMC)): 108 % of control
T/C (dose: 27.0 mg/kg/injection, schedule: Q01DX Z (ip), vehicle: methylcellulose (MC)): 105 % of control
T/C (dose: 30.0 mg/kg/injection, schedule: Q01DX Z (ip), vehicle: other): 103 % of control
T/C (dose: 32.35 mg/kg/injection, schedule: Q01DX Z (ip), vehicle: carboxymethylcellulose (CMC)): 102 % of control and 103 % of control
T/C (dose: 39.0 mg/kg/injection, schedule: Q01DX Z (ip), vehicle: methylcellulose (MC)): 164 % of control
T/C (dose: 40.0 mg/kg/injection, schedule: Q01DX Z (ip), vehicle: carboxymethylcellulose (CMC)): 114 % of control and 122 % of control and 123 % of control
T/C (dose: 40.0 mg/kg/injection, schedule: Q01DX Z (ip), vehicle: methylcellulose (MC)): 100 % of control
T/C (dose: 43.13 mg/kg/injection, schedule: Q01DX Z (ip), vehicle: carboxymethylcellulose (CMC)): 113 % of control
T/C (dose: 48.0 mg/kg/injection, schedule: Q01DX Z (im), vehicle: saline): 108 % of control
T/C (dose: 48.0 mg/kg/injection, schedule: Q01DX Z (sc), vehicle: saline): 101 % of control
T/C (dose: 50.0 mg/kg/injection, schedule: Q01DX005 (ip), vehicle: Klucel (hydroxypropylcellulose) (HPC)): 114 % of control
T/C (dose: 50.0 mg/kg/injection, schedule: Q01DX005 (ip), vehicle: water): 121 % of control
T/C (dose: 50.0 mg/kg/injection, schedule: Q01DX Z (ip), vehicle: carboxymethylcellulose (CMC)): 121 % of control
T/C (dose: 50.0 mg/kg/injection, schedule: Q04DX003 (ip), vehicle: Klucel (hydroxypropylcellulose) (HPC)): 102 % of control and 119 % of control
T/C (dose: 50.0 mg/kg/injection, schedule: Q04DX003 (ip), vehicle: saline): 102 % of control
T/C (dose: 50.0 mg/kg/injection, schedule: Q04DX003 (ip), vehicle: water): 106 % of control
T/C (dose: 58.0 mg/kg/injection, schedule: Q01DX Z (ip), vehicle: methylcellulose (MC)): 222 % of control
T/C (dose: 60.0 mg/kg/injection, schedule: Q01DX Z (ip), vehicle: methylcellulose (MC)): 104 % of control
T/C (dose: 75.0 mg/kg/injection, schedule: Q01DX001 (ip), vehicle: Klucel (hydroxypropylcellulose) (HPC)): 117 % of control
T/C (dose: 75.0 mg/kg/injection, schedule: Q01DX001 (ip), vehicle: saline): 96 % of control and 101 % of control
T/C (dose: 75.0 mg/kg/injection, schedule: Q01DX001 (ip), vehicle: water): 108 % of control
T/C (dose: 90.0 mg/kg/injection, schedule: Q01DX Z (ip), vehicle: methylcellulose (MC)): 100 % of control
T/C (dose: 96.0 mg/kg/injection, schedule: Q01DX Z (im), vehicle: carboxymethylcellulose (CMC)): 111 % of control
T/C (dose: 96.0 mg/kg/injection, schedule: Q01DX Z (im), vehicle: saline): 120 % of control
T/C (dose: 96.0 mg/kg/injection, schedule: Q01DX Z (ip), vehicle: carboxymethylcellulose (CMC)): 111 % of control
T/C (dose: 96.0 mg/kg/injection, schedule: Q01DX Z (ip), vehicle: saline): 165 % of control
T/C (dose: 96.0 mg/kg/injection, schedule: Q01DX Z (sc), vehicle: saline): 115 % of control
T/C (dose: 100.0 mg/kg/injection, schedule: Q01DX001 (ip), vehicle: saline): 104 % of control
T/C (dose: 100.0 mg/kg/injection, schedule: Q01DX005 (ip), vehicle: water): 157 % of control
T/C (dose: 100.0 mg/kg/injection, schedule: Q01DX010 (ip), vehicle: saline): 151 % of control and 166 % of control
T/C (dose: 100.0 mg/kg/injection, schedule: Q04DX003 (ip), vehicle: saline): 93 % of control and 116 % of control
T/C (dose: 129.4 mg/kg/injection, schedule: Q01DX Z (ip), vehicle: carboxymethylcellulose (CMC)): 87 % of control
T/C (dose: 140.0 mg/kg/injection, schedule: Q01DX Z (sc), vehicle: carboxymethylcellulose (CMC)): 122 % of control
T/C (dose: 145.0 mg/kg/injection, schedule: Q01DX001 (ip), vehicle: water): 116 % of control
T/C (dose: 150.0 mg/kg/injection, schedule: Q01DX001 (ip), vehicle: Klucel (hydroxypropylcellulose) (HPC)): 107 % of control
T/C (dose: 150.0 mg/kg/injection, schedule: Q01DX001 (ip), vehicle: saline): 94 % of control and 104 % of control
T/C (dose: 150.0 mg/kg/injection, schedule: Q01DX001 (ip), vehicle: water): 120 % of control
T/C (dose: 200.0 mg/kg/injection, schedule: Q01DX001 (ip), vehicle: saline): 110 % of control
T/C (dose: 200.0 mg/kg/injection, schedule: Q01DX009 (ip), vehicle: saline): 105 % of control and 110 % of control
T/C (dose: 200.0 mg/kg/injection, schedule: Q01DX010 (ip), vehicle: saline): 93 % of control and 103 % of control
T/C (dose: 200.0 mg/kg/injection, schedule: Q01DX Z (oral), vehicle: saline): 104 % of control
T/C (dose: 200.0 mg/kg/injection, schedule: Q04DX003 (ip), vehicle: Klucel (hydroxypropylcellulose) (HPC)): 176 % of control and 180 % of control
T/C (dose: 200.0 mg/kg/injection, schedule: Q04DX003 (ip), vehicle: saline): 117 % of control
T/C (dose: 215.0 mg/kg/injection, schedule: Q01DX Z (im), vehicle: carboxymethylcellulose (CMC)): 122 % of control
T/C (dose: 215.0 mg/kg/injection, schedule: Q01DX Z (sc), vehicle: carboxymethylcellulose (CMC)): 111 % of control
T/C (dose: 217.0 mg/kg/injection, schedule: Q01DX001 (ip), vehicle: water): 121 % of control
T/C (dose: 300.0 mg/kg/injection, schedule: Q01DX001 (ip), vehicle: saline): 105 % of control
T/C (dose: 300.0 mg/kg/injection, schedule: Q01DX001 (ip), vehicle: water): 121 % of control
T/C (dose: 320.0 mg/kg/injection, schedule: Q01DX Z (im), vehicle: carboxymethylcellulose (CMC)): 100 % of control and 114 % of control
T/C (dose: 320.0 mg/kg/injection, schedule: Q01DX Z (sc), vehicle: carboxymethylcellulose (CMC)): 102 % of control
T/C (dose: 400.0 mg/kg/injection, schedule: Q01DX001 (ip), vehicle: saline): 188 % of control
T/C (dose: 480.0 mg/kg/injection, schedule: Q01DX Z (im), vehicle: carboxymethylcellulose (CMC)): 90 % of control
